Entries after “also recorded” stand apart in the source; their conditions may differ.
Key:
[1] = target: Vibrio splendidus alkaline phosphatase (VAP); design: method as in PMID 33102813; settings: cited from earlier work
[2] = target: T1, alkaline phosphatase CmAP (Cobetia amphilecti, UniProt Q1W622); design: method as in PMID 31181923; settings: cited from earlier work; for inhibitory activity against CmAP: previous study ref 33; for affinity relative to the chelator EDTA: CmAP, higher affinity than EDTA ref 33
T1 sequence (Q1W622 entry or part of it): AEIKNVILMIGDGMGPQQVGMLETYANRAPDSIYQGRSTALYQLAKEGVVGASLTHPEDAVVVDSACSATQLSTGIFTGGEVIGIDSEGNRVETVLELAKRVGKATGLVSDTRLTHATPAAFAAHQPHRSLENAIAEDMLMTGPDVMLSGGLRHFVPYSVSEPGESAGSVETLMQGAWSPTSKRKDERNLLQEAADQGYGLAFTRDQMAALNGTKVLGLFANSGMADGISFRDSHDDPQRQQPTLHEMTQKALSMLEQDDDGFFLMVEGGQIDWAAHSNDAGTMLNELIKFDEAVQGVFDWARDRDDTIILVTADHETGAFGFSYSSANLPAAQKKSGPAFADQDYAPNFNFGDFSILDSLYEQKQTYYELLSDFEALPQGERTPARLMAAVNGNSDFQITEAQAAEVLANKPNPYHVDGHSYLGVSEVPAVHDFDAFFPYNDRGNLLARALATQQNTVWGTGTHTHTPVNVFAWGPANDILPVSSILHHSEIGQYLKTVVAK

ALP = system: ALP; design: method as in PMID 25694083, PMID 37274413, PMID 36362051; settings: standard inhibitory ligands of ALP ref 17-19; cited from earlier work
[3] = target: T1, alkaline phosphatase CmAP; assay: Inhibitory activity assay and kinetics on alkaline phosphatase CmAP (pNPP hydrolysis); type: biochemical, Cobetia amphilecti KMM 296; settings: for IC50: 2 mM pNPP, 0.1 M Tris-HCl pH 10.0, 0.2 M KCl, 37 °C, 60 min preincubation, mean of three ± SD; for residual activity: at maximum inhibition; for Ki: by the Cheng–Prusoff formula Ki = IC50/(1 + [S]/Km); for type of inhibition: pNPP substrate; for Vmax in the presence of inhibitor: pNPP, guitarrin C 52.0 µM, guitarrin D 96.0 µM, 60 min preincubation at 23 °C, without inhibitor 5.98 ± 0.03
Procedure: (§1) The enzymatic activity was evaluated through the addition of 5 μL of the protein solution sample to a solution of 495 μL buffer, comprising 0.1 M Tris-HCl (pH 10.0), 0.2 M KCl, and 2 mM pNPP. The reaction mixture was incubated at 37 °C for a period of 30 min. To halt the reaction, 2 mL of chilled 0.5 M NaOH was introduced. The quantity of p-nitrophenol (pNP) produced was quantified spectrophotometrically at a wavelength of 400 nm, with the control sample, which lacked the enzyme, serving as a reference point. The specific activity was calculated using the following formula: (2.5 × OD400)/(18.6 × 0.005 × t × C), where OD400 is the optical density at a wavelength of 400 nm, 2.5 is the volume of the reaction mixture in mL, 18.6 is the extinction coefficient of pNP (M^−1/cm^−1), t is the incubation time at 37 °C in minutes, 0.005 is the sample volume in mL, and C is the protein concentration in the sample (mg/mL). The quantity of enzyme required for the generation of 1 µM pNP within a one-minute period was established as the unit of activity.
(§2) The effect of the natural inhibitors guitarrins C and D [33] on the activity of the alkaline phosphatases CmAP from C. amphilecti KMM 296 and calf intestinal alkaline phosphatase (CIAP, Invitrogen™ 18009019, Thermo Fisher Scientific, Waltham, MA, USA) was investigated in a buffer containing 0.1 M tris-HCl (pH 10.0) with 0.2 KCl. […] The activity of ALPs was determined using the standard method described above. CmAP (3.22 mg/mL, 2929 U/mg) and CIAP (0.99 mg/mL, 647 U/mg) were dissolved in 50 mM tris-HCl (pH 8.0) buffer with 2 mM MgCl2. Results were presented as the percentage of inhibition relative to control activity. The IC50 for each compound tested was defined as the concentration of compound that inhibited the enzyme activity by 50%. IC50 values are given as the mean of three experiments and standard deviation.
(§3) The kinetic parameters (Km and Vmax) were determined for alkaline phosphatases CmAP and CIAP. The mean Km values and standard deviations were presented. […] The inhibition constant, Ki, was determined using the Cheng–Prusoff formula [51]. The binding activity of the inhibitor to the reactive substrate (Ki) can be calculated using the following formula: Ki = IC50/(1 + [S]/Km), where IC50 is the functional activity of the inhibitor, [S] is the concentration of the reactive substrate, and KM is the Michaelis constant. The results were presented in the Origin 7.0 software.

[4] = target: T2, calf intestinal alkaline phosphatase (CIAP) (Bos taurus, UniProt P19111); assay: Inhibitory activity assay on calf intestinal alkaline phosphatase (pNPP hydrolysis); type: biochemical; settings: for IC50: 2 mM pNPP, 0.1 M Tris-HCl pH 10.0, 0.2 M KCl, 37 °C, 60 min preincubation, mean of three ± SD; for Ki: by the Cheng–Prusoff formula Ki = IC50/(1 + [S]/Km)
T2 construct: purchased Invitrogen, Thermo Fisher Scientific 18009019
T2 sequence (P19111 20-506 limits assumed): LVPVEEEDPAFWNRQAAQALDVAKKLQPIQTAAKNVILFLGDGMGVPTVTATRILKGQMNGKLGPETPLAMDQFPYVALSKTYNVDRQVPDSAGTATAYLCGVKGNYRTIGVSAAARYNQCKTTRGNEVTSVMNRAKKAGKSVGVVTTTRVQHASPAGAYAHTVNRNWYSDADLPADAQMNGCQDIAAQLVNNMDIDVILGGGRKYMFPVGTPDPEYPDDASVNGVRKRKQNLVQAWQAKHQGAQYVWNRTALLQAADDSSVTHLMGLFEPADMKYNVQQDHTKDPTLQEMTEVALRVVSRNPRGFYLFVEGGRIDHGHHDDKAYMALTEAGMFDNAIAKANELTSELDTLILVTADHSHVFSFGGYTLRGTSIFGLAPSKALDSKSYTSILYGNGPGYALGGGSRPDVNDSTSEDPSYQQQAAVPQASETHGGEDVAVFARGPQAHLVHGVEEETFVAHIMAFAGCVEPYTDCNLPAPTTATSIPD
Procedure: as §1, §2, §3

## NC1CCCCC1 [cyclohexylamine]
[1]; VAP ref 27
  IC50: 35700 µM
  Michaelis–Menten constant in the presence of inhibitor (unchanging): 195 ± 4 µM
  type of inhibition: non-competitive
[1]; VAP, Ki equal to IC50 ref 27
  Ki: 35700 µM

## guitarrin E
[2]
  inhibitory activity against CmAP: no inhibitory activity; also recorded: non-inhibitory

## guitarrin A
[2]
  inhibitory activity against CmAP: no inhibitory activity; also recorded: non-inhibitory

## Cn1c(=O)c2[nH]cnc2n(C)c1=O [theophylline]
ALP
  IC50: 47 µM
  Ki: 91 µM

## O=C(O)c1nc(CO)c2cc[nH]c2c1O [guitarrin D]
[3]
  maximum inhibition of activity: 85%
  IC50: 110 ± 0.8 µM
  residual activity: 15%
  Ki: 20.56 ± 0.06 µM
  type of inhibition: mixed type of inhibition
  Vmax in the presence of inhibitor: 3.98 ± 0.02 U mL^−1
[3]; with versus without inhibitor
  decrease in Vmax: more than 2 fold
[4]
  difference in inhibitory activity compared to guitarrin C: 1.2 fold
  maximum inhibition of activity: 57%
  IC50: 230 ± 1.6 µM
  Ki: 45 ± 0.2 µM
[2]
  affinity relative to the chelator EDTA: 100 fold
  inhibitory activity against CmAP: pronounced inhibitory activity

## c1ccc([C@H]2CN3CCSC3=N2)cc1 [levamisole]
ALP
  IC50: 19 µM

## N[C@@H](Cc1ccccc1)C(=O)O [L-phenylalanine]
ALP
  IC50: 80 µM

## O=C(O)c1cc2[nH]ccc2c(CO)n1 [guitarrin C]
[3]
  maximum inhibition of activity: 85%
  IC50: 8.5 ± 0.08 µM
  residual activity: 15%
  Ki: 1.58 ± 0.04 µM
  type of inhibition: non-competitive
  Vmax in the presence of inhibitor: 2.62 ± 0.02 U mL^−1
[3]; more active
  activity relative to guitarrin D: 10 fold
[4]
  maximum inhibition of activity: 57%
  IC50: 195 ± 2.2 µM
  Ki: 38 ± 0.1 µM
[4]; pNPP substrate
  type of inhibition: non-competitive
[2]
  affinity relative to the chelator EDTA: 1000 fold
  inhibitory activity against CmAP: pronounced inhibitory activity
